These results are taken from patent US7176205B2, “Bi-pyridinyl derivatives as NK-1 antagonists” (Hoffmann-La Roche Inc., priority 2005, dated 2007).

Each structure is given as a SMILES string. In brackets after ≈: the same amount, converted by molar mass.

The target in one data set is T1, human NK-1 receptor (Homo sapiens, UniProt P25103).
T1 construct: expressed in transfected cells; host or cells: CHO cells infected using the Semliki virus expression system; membrane suspension
As to the kind of experiment: NK-1 receptor binding, [3H]substance P displacement. The note with it: human NK-1 receptors in CHO cells, [3H]substance P 0.6 nM; read-out: pKi(NK-1) (converted). On the procedure: The affinity of test compounds for the NK-1 receptor was evaluated at human NK-1 receptors in CHO cells infected with the human NK-1 receptor (using the Semliki virus expression system) and radiolabelled with [^3H]substance P (final concentration 0.6 nM). Binding assays were performed in HEPES buffer (50 mM, pH 7.4) containing BSA (0.04%) leupeptin (8 μg/ml), MnCl2 (3 mM) and phosphoramidon (2 μM). Binding assays consisted of 250 μl of membrane suspension (1.25×10^5 cells/assay tube), […] of buffer of displacing agent and 125 μl of [^3H]substance P. Displacement curves were determined with at least seven concentrations of the compound. The assay tubes were incubated for 60 min at room temperature after which time the tube contents were rapidly filtered under vacuum through GF/C filters presoaked for 60 min with PEI (0.3%) with 2×2 ml washes of HEPES buffer (50 mM, pH 7.4). The radioactivity retained on the filters was measured by scintillation counting. All assays were performed in triplicate in at least 2 separate experiments.

Another data set in a line: Equilibrium solubility. In kind it is physicochemical. The note with it: citrate buffer, aqueous buffer, thermodynamic from solid; pH 4.2, 0.15 M Citrat-buffer, 21° C. On the procedure: Method Description Equilibrium Solubility
Equilibrium solubility values were determined at pH 4.2 (0.15 M Citrat-buffer). A known amount of drug, generally 1–2 mg, was added to 250 μl of buffer (glass tubes) and the resulting suspension was stirred for 2 h (21° C.), after 5 minutes of sonification. The pH of the solution was checked and corrected if necessary (in case of pH correction, the solution was once more shaken and equilibrated) and after 24 h the suspension was filtered through a 0.65-μm filter. The filtered solution was then assayed by HPLC to determine the drug concentration. In cases where the drug had completely dissolved in the buffer, the value for equilibrium solubility was assumed to be higher than the value determined by HPLC and was reported as such. Stock solutions (˜1 mg/ml) in DMSO were used in the preparation of a calibration curve in the related buffer using HPLC analytics.

T1 sequence (P25103 whole entry): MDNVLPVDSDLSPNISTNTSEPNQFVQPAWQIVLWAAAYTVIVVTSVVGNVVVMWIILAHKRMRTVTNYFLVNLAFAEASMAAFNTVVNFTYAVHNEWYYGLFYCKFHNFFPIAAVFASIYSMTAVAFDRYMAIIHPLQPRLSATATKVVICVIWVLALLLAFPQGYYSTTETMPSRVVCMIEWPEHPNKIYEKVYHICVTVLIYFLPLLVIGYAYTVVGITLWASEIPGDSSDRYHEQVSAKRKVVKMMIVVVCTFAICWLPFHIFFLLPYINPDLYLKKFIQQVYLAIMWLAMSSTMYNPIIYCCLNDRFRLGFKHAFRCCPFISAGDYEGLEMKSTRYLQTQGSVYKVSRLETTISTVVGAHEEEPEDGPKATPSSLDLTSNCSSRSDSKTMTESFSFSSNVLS

For orientation: solubility means the concentration that dissolves in the medium under given conditions. As for `Cc1ncccc1-c1cc(N2CCN(C)CC2)ncc1C(=O)N(C)Cc1cc(C(F)(F)F)cc(C(F)(F)F)c1` [Example 1, 2-Methyl-6′-(4-methyl-piperazin-1-yl)-[3,4′]bipyridinyl-3′-carboxylic acid (3,5-bis-trifluoromethyl-benzyl)-methyl-amide], on human NK-1 receptor, the Ki is 2.75 nM. In “Equilibrium solubility”, this compound came in with a solubility at 24 h of 13700 µg/mL (≈ 24.8 mM).

Turning to `Cc1ccccc1-c1cc(N2CCN(C)CC2)ncc1C(=O)N(C)Cc1cc(C(F)(F)F)cc(C(F)(F)F)c1` [EP 1 035 115A1example 12, reference compound], in “Equilibrium solubility”, the solubility at 24 h is 495 µg/mL (≈ 0.899 mM).

In the case of `Cc1ccccc1-c1cc(N2CCN(C)CC2)ncc1N(C)C(=O)C(C)(C)c1cc(C(F)(F)F)cc(C(F)(F)F)c1` [EP 1 035 115A1example 14, reference compound], the Ki at human NK-1 receptor is 0.977 nM. Also, the solubility at 24 h in the data set “Equilibrium solubility” is 26 µg/mL (≈ 0.0449 mM).

Take `Cc1ncccc1-c1cc(N2CCN(C)CC2)ncc1N(C)C(=O)C(C)(C)c1cc(C(F)(F)F)cc(C(F)(F)F)c1` [Example 2, 2-(3,5-Bis-trifluoromethyl-phenyl)-N-methyl-N-[2-methyl-6′-(4-methyl-piperazin-1-yl)-[3,4′]bipyridinyl-3′-yl]-isobutyramide]: the Ki at human NK-1 receptor was 1.1 nM. In “Equilibrium solubility”, this compound gave a solubility at 24 h of 7500 µg/mL (≈ 12.9 mM).
